Results reported in patent publication US9439906B2, “Dosing regimen associated with long acting injectable paliperidone esters” (Janssen Pharmaceutica NV, priority 2007, dated 2016).

What was measured:
[1] = Safety in phase 3 placebo-controlled study R092670-PSY-3007; format: in vivo, human; settings: for average increase in body weight: placebo −0.2 kg; for Akathisia (EPS-related adverse event): placebo 4.9%; for mean change in BMI from baseline to end point: placebo −0.1
Method: Safety was monitored by the evaluation of adverse events, extrapyramidal symptom (EPS) rating scales (Abnormal Involuntary Movement Scale [AIMS], Barnes Akathisia Rating Scale [BARS], Simpson and Angus Rating Scale [SAS]) scores, clinical laboratory test results, vital signs measurements, electrocardiograms (ECGs), and physical examination findings. In addition, the tolerability of injections was assessed; the investigators evaluated injection sites and the subjects assessed injection pain.
The number and percentage of subjects with treatment-emergent adverse events were summarized. Adverse events of potential clinical interest were summarized separately, including events related to EPS or changes in serum glucose or prolactin levels.
Changes from baseline in clinical laboratory tests, vital sign measurements, ECGs, body weight, BMI, and EPS scale scores were summarized by treatment group. Prolactin levels were summarized by sex. Subjects with potentially abnormal values or changes in clinical laboratory tests, vital signs, orthostatic parameters, and ECG parameters were summarized based on predefined criteria. Frequency distributions were presented for the investigator's evaluation of the injection site, and descriptive statistics were presented for VAS scores corresponding to the subject's evaluation of injection pain.

[2] = Comparison of single-dose PK profile in the deltoid to that in the gluteal (summary of phase 1 studies); format: in vivo, human
Method: The plasma concentration-time profile of paliperidone after single i.m. injection of the paliperidone palmitate formulation at 25-150 mg-eq. has been documented in several studies (Table 4). Details of how the comparison of injection sites study and the dose proportionality studies were performed are provided in Examples 2 and 3.

[3] = Treatment-emergent adverse events in the single-dose dose-proportionality study; settings: single dose 25-150 mg-eq.
Description: The subjects were assigned into eight treatment groups: paliperidone palmitate 25 (n=48), 50 (n=50), 100 (n=51) or 150 (n=52) mg-eq. injected into either the deltoid or gluteal muscle.

SMILES: CCCCCCCCCCCCCCCC(=O)OC1CCCn2c1nc(C)c(CCN1CCC(c3noc4cc(F)ccc34)CC1)c2=O (racemic) [paliperidone palmitate, (±)-3-[2-[4-(6-fluoro-1,2-benzisoxazol-3-yl)-1-piperidinyl]ethyl]-6,7,8,9-tetrahydro-2-methyl-4-oxo-4H-pyrido[1,2-α]pyrimidin-9-yl hexadecanoate]
- 1 or more serious TEAE, (%) ([1]; 25 mg eq. group (N = 160)): (9.4) %
- Possibly related TEAE, (%) ([1]; 25 mg eq. group (N = 160)): (28.1) %
- TEAE leading to permanent stop, (%) ([1]; 25 mg eq. group (N = 160)): (6.3) %
- TEAE, (%) ([1]; 25 mg eq. group (N = 160)): (63.1) %
- average increase in body weight ([1]; 25 mg eq. group, 13 weeks): 0.4 kg
- Akathisia (EPS-related adverse event) ([1]; 25 mg eq. group): 1.3%
- mean change in BMI from baseline to end point ([1]; 25 mg eq. group): 0.1 kg/m^2
- 1 or more serious TEAE, (%) ([1]; 100 mg eq. group (N = 165)): (13.3) %
- Possibly related TEAE, (%) ([1]; 100 mg eq. group (N = 165)): (29.7) %
- TEAE leading to permanent stop, (%) ([1]; 100 mg eq. group (N = 165)): (6.1) %
- TEAE, (%) ([1]; 100 mg eq. group (N = 165)): (60.0) %
- average increase in body weight ([1]; 100 mg eq. group, 13 weeks): 0.7 kg
- Akathisia (EPS-related adverse event) ([1]; 100 mg eq. group): 4.8%
- mean change in BMI from baseline to end point ([1]; 100 mg eq. group): 0.3 kg/m^2
- tolerability ([1]; 150 mg eq. deltoid then 25, 100 or 150 mg eq. Days 8, 36, 64, 13 weeks): generally well tolerated
- 1 or more serious TEAE, (%) ([1]; 150 mg eq. group (N = 163)): 8.0%
- Possibly related TEAE, (%) ([1]; 150 mg eq. group (N = 163)): 31.3%
- TEAE leading to death, (%) ([1]; 150 mg eq. group (N = 163)): 0.6%
- TEAE leading to permanent stop, (%) ([1]; 150 mg eq. group (N = 163)): 8.0%
- TEAE, (%) ([1]; 150 mg eq. group (N = 163)): 63.2%
- average increase in body weight ([1]; 150 mg eq. group, 13 weeks): 1.4 kg
- Akathisia (EPS-related adverse event) ([1]; 150 mg eq. group): 5.5%
- mean change in BMI from baseline to end point ([1]; 150 mg eq. group): 0.5 kg/m^2
- Local injection site tolerability ([1]; all dose groups): good
- incidence of treatment-emergent EPS-related adverse events ([1]; all dose groups): low and comparable to placebo
- ECG: clinically significant QTc prolongation ([1]; doses up to 150 mg eq.): did not demonstrate evidence of clinically significant QTc prolongation
- subjects with maximum QTcLD value >480 ms or maximal change in QTcLD >60 ms ([1]; during the study): No subject
- subjects with weight increase of at least 7% relative to baseline ([1]; highest dose (150 mg eq.), placebo 5%): 13%
- prolactin levels ([1]; versus placebo, largest increase in the 150 mg eq. group): increases in prolactin levels were observed with greater frequency
- increase in Cmax versus dose ([2]; both injection sites, doses greater than 50 mg eq.): slightly less than dose proportional
- median apparent half-life between injection sites ([2]; single dose, deltoid vs gluteal): comparable
- total exposure (AUC∞) of paliperidone versus dose ([2]; single-dose 25 to 150 mg eq., deltoid and gluteal): increased proportionally with dose
- Treatment-emergent AE: headache [3]: 7%
- Treatment-emergent AE: insomnia [3]: 5%
- Treatment-emergent AE: schizophrenia [3]: 6%
- Treatment-emergent AE: tachycardia [3]: 10%
- deaths [3]: No deaths
- subjects discontinued due to TEAs [3]: 2%
